Among the data in ChEMBL document CHEMBL3046536, “Synthesis, crystal structure, and insecticidal activity of novel N-alkyloxyoxalyl derivatives of 2-arylpyrrole” (2008) are mortality values, retold here.

Common to all, as to format: functional
Experiment [1] has as its system Mythimna separata. Briefly: Insecticidal activity against Mythimna separata (Oriental armyworm) fourth-instar larvae infested compound pre-treated corn leaves assessed as insect mortality at 5 mg/kg measured 2 days post compound treatment.
In experiment [2] the test system is Tetranychus cinnabarinus. The experiment is described as follows: Insecticidal activity against Tetranychus cinnabarinus (carmine spider mite) infested on Sieva bean plants leaves exposed to compound formulation at 200 mg/kg assessed as insect mortality measured 2 days post compound treatment. The settings on record: 48 h.
Experiment [3] has as its system Mythimna separata. Briefly: Insecticidal activity against Mythimna separata (Oriental armyworm) fourth-instar larvae infested compound pre-treated corn leaves assessed as insect mortality at 20 mg/kg measured 2 days post compound treatment.
In experiment [4] the test system is Mythimna separata. The experiment is described as follows: Insecticidal activity against Mythimna separata (Oriental armyworm) fourth-instar larvae infested compound pre-treated corn leaves assessed as insect mortality at 10 mg/kg measured 2 days post compound treatment.
The test system of experiment [5] is Tetranychus cinnabarinus. Briefly: Insecticidal activity against Tetranychus cinnabarinus (carmine spider mite) infested on Sieva bean plants leaves exposed to compound formulation at 50 mg/kg assessed as insect mortality measured 2 days post compound treatment. The settings on record: 48 h.
Experiment [6] concerns Tetranychus cinnabarinus. The experiment is described as follows: Insecticidal activity against Tetranychus cinnabarinus (carmine spider mite) infested on Sieva bean plants leaves exposed to compound formulation at 100 mg/kg assessed as insect mortality measured 2 days post compound treatment. Particulars: 48 h.
Experiment [7] relates to Culex pipiens pallens. The experiment is described as follows: Insecticidal activity against Culex pipiens pallens (mosquito) fourth-instar larvae assessed as insect mortality at 0.5 mg/kg measured 2 days post compound treatment. The settings on record: 48 h.
Experiment [8] has as its system Culex pipiens pallens. Briefly: Insecticidal activity against Culex pipiens pallens (mosquito) fourth-instar larvae assessed as insect mortality at 0.25 mg/kg measured 2 days post compound treatment. The settings on record: 48 h.
Experiment [9] relates to Culex pipiens pallens. The experiment is described as follows: Insecticidal activity against Culex pipiens pallens (mosquito) fourth-instar larvae assessed as insect mortality at 0.1 mg/kg measured 2 days post compound treatment. The settings on record: 48 h.

As usually defined, the mortality is the share of the test organisms that died. For the compound `CCOCn1c(-c2ccc(Cl)cc2)c(C#N)c(Br)c1C(F)(F)F` [CHLORFENAPYR], the mortality at 5 mg/kg in [1] worked out at 0%. Also, the mortality at 200 mg/kg in [2] was determined as 100%. Moreover, in experiment [3], the mortality at 20 mg/kg was found to be 100%. Also, the mortality at 10 mg/kg in experiment [4] turned out to be 100%. In [5], the mortality at 50 mg/kg came out at 93%. The mortality at 100 mg/kg in experiment [6] worked out at 97%. In addition, the mortality at 0.5 mg/kg in experiment [7] was 100%. For the same compound, in experiment [8], the mortality at 0.25 mg/kg was determined as 100%. In addition, the mortality at 0.1 mg/kg in experiment [9] came to 100%.
